Laboratory results taken from ChEMBL document CHEMBL4425165, “Discovery of Pyrazolo[1,5-a]pyrimidine TTK Inhibitors: CFI-402257 is a Potent, Selective, Bioavailable Anticancer Agent” (ACS Med Chem Lett, 2016).
In brackets after ≈: the same amount, converted by molar mass.

Tests used:
Cytochrome P450 3A4 [1] = target: T1, Cytochrome P450 3A4 (Homo sapiens, UniProt P08684); test: Inhibition of CYP3A4 (unknown origin) preincubated for 10 mins followed by addition of DBF as substrate measured after 10 mins in presence of NADP by fluorescence analysis; format: ADME
T1 sequence (P08684 whole entry): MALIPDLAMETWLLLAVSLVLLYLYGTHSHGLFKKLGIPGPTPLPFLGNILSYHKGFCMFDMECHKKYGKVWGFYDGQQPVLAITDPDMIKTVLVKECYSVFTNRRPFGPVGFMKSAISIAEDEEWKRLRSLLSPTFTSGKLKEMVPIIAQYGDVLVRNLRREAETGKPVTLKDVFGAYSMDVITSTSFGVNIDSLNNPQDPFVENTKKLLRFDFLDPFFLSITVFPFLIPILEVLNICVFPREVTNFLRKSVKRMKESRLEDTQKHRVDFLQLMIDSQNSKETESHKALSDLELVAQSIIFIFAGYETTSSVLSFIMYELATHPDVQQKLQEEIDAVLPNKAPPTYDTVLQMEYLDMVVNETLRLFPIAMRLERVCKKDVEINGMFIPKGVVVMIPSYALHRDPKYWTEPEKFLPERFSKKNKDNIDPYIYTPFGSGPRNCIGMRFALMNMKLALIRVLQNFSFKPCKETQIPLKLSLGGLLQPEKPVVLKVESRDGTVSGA

[2] = Solubility of the compound at pH 2; format: physicochemical; settings: buffer
[3] = Clearance in Sprague-Dawley rat at 1 mg/kg, iv or 5 mg/kg, po by LC-MS/MS analysis; format: ADME, organism-based; settings: in vivo
Cytochrome P450 1A2 = target: T2, Cytochrome P450 1A2 (Homo sapiens, UniProt P05177); test: Inhibition of CYP1A2 (unknown origin) preincubated for 10 mins followed by addition of CEC as substrate measured after 15 mins in presence of NADP by fluorescence analysis; format: ADME
T2 sequence (P05177 whole entry): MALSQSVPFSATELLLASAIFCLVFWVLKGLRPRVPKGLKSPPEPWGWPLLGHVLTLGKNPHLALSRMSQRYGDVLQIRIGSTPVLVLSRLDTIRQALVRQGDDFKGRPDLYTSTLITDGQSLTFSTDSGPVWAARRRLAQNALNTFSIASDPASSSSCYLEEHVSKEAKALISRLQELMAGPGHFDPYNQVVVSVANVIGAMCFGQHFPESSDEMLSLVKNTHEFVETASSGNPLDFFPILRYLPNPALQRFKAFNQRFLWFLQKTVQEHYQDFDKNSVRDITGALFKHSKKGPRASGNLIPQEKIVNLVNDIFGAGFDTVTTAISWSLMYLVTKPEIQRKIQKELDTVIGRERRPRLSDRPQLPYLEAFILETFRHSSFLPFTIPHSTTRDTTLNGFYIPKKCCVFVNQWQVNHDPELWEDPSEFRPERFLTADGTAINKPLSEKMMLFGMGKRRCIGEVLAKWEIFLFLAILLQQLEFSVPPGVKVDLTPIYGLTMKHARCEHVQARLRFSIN

MDA-MB-468 = test: Growth inhibition of human MDA-MB-468 cells measured after 5 days by sulforhodamine B assay; format: functional; settings: MDA-MB-468, 120 h
HCT-116 [4] = test: Antitumor activity against human HCT116 cells xenografted in athymic nude mouse assessed as tumor growth inhibition at 6.5 mg/kg, po qd measured on day 21; format: functional; settings: HCT-116, po, 504 h, read-out: TGI
[5] = Toxicity in po dosed athymic nude mouse; format: organism-based; settings: in vivo
[6] = AUC in athymic CD-1 nude mouse at 10 mg/kg, po by LC-MS/MS analysis; format: ADME, organism-based; settings: in vivo
[7] = Bioavailability in beagle dog at 5 mg/kg by LC-MS/MS analysis; format: ADME, organism-based, Canis lupus familiaris; settings: in vivo
[8] = Solubility of the compound at pH 7.4; format: physicochemical; settings: buffer
HCT-116 [9] = test: Antitumor activity against human HCT116 cells xenografted in athymic nude mouse assessed as tumor growth inhibition measured on day 21 relative to vehicle-treated control; format: functional
Cytochrome P450 2C9 = Cytochrome P450 2C9 (Homo sapiens, UniProt P11712); test: Inhibition of CYP2C9 (unknown origin) preincubated for 10 mins followed by addition of MFC as substrate measured after 45 mins in presence of NADP by fluorescence analysis; format: ADME
Sequence of Cytochrome P450 2C9 (P11712 whole entry): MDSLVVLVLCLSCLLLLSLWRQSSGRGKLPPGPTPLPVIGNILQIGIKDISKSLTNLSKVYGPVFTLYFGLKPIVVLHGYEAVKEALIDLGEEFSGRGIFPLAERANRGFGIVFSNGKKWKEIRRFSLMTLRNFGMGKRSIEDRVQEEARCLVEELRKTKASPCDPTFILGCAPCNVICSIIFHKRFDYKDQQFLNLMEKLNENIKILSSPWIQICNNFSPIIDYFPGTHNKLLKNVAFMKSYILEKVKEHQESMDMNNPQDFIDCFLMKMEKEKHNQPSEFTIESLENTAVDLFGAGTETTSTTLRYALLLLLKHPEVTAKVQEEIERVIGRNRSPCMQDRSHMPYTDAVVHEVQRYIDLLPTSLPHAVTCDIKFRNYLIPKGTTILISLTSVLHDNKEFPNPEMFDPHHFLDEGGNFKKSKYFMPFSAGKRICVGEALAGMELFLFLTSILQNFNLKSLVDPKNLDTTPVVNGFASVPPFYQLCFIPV

[10] = Bioavailability in Sprague-Dawley rat at 5 mg/kg by LC-MS/MS analysis; format: ADME, organism-based; settings: in vivo
[11] = Toxicity in po dosed athymic nude mouse xenografted with human HCT116 cells assessed as weight loss measured on day 21; format: organism-based; settings: in vivo
[12] = AUC (0 to infinity) in beagle dog at 5 mg/kg, po by LC-MS/MS analysis; format: ADME, organism-based, Canis lupus familiaris; parameters: dose 5 mg/kg, route oral, time infinity; settings: in vivo
Cytochrome P450 2C19 = Cytochrome P450 2C19 (Homo sapiens, UniProt P33261); test: Inhibition of CYP2C19 (unknown origin) preincubated for 10 mins followed by addition of MFC as substrate measured after 30 mins in presence of NADP by fluorescence analysis; format: ADME
Sequence of Cytochrome P450 2C19 (P33261 whole entry): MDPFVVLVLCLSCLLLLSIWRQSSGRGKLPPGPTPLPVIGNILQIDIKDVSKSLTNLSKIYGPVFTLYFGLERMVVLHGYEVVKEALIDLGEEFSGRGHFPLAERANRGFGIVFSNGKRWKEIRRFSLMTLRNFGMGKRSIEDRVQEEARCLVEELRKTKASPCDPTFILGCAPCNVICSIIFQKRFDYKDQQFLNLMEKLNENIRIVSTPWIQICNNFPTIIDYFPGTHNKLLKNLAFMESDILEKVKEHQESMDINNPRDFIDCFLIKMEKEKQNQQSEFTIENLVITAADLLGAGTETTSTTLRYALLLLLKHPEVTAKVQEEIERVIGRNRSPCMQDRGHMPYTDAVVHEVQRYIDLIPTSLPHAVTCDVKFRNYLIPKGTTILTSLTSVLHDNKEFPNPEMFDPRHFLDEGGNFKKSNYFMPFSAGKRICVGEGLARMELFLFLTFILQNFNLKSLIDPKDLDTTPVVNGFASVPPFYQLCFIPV

HT-29 = test: Antitumor activity against human HT-29 cells xenografted in athymic nude mouse assessed as tumor growth inhibition at 6.5 mg/kg, po qd measured on day 21; format: functional; settings: HT-29, po, 504 h, read-out: TGI
Cytochrome P450 3A4 [13] = target: T1, Cytochrome P450 3A4; test: Inhibition of CYP3A4 (unknown origin) preincubated for 10 mins followed by addition of BFC as substrate measured after 10 mins in presence of NADP by fluorescence analysis; format: ADME
[14] = Clearance in beagle dog at 1 mg/kg, iv or 5 mg/kg, po by LC-MS/MS analysis; format: ADME, organism-based, Canis lupus familiaris; settings: in vivo
[15] = Dissociation constant, pKa of the compound; format: physicochemical
HCT-116 [16] = test: Growth inhibition of human HCT116 cells measured after 5 days by sulforhodamine B assay; format: functional; settings: HCT-116, 120 h
[17] = AUC (0 to infinity) in Sprague-Dawley rat at 5 mg/kg, po by LC-MS/MS analysis; format: ADME, organism-based; parameters: dose 5 mg/kg, time infinity, route oral; settings: in vivo
[18] = Cmax in athymic CD-1 nude mouse at 10 mg/kg, po by LC-MS/MS analysis; format: ADME, organism-based; parameters: dose 10 mg/kg, route oral; settings: in vivo
OVCAR-3 = test: Growth inhibition of human OVCAR3 cells measured after 5 days by sulforhodamine B assay; format: functional; settings: OVCAR-3, 120 h
HCT-116 [19] = test: Antitumor activity against human HCT116 cells xenografted in athymic nude mouse assessed as tumor growth inhibition at 5.5 mg/kg, po qd measured on day 21; format: functional; settings: HCT-116, po, 504 h, read-out: TGI
[20] = Toxicity in po dosed athymic nude mouse xenografted with human HCT116 cells assessed as induction of overt adverse signs measured on day 21; format: organism-based; settings: in vivo
Cytochrome P450 2D6 = Cytochrome P450 2D6 (Homo sapiens, UniProt P10635); test: Inhibition of CYP2D6 (unknown origin) preincubated for 10 mins followed by addition of AMMC as substrate measured after 30 mins in presence of NADP by fluorescence analysis; format: ADME
Sequence of Cytochrome P450 2D6 (P10635 whole entry): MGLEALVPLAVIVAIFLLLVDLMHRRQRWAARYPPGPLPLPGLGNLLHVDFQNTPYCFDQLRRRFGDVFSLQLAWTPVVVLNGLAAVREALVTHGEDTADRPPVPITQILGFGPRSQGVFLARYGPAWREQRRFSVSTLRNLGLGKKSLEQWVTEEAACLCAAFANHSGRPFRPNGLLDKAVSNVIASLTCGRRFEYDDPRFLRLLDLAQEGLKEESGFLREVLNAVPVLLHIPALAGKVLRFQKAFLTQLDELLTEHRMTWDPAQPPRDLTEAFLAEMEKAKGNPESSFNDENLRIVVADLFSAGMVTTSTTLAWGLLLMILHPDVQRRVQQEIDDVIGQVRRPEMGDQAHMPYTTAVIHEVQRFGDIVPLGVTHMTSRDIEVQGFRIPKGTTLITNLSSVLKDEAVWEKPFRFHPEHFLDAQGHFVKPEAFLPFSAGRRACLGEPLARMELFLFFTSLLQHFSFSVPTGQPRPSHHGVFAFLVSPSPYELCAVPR

[21] = target: T3, Dual specificity protein kinase TTK (Homo sapiens, UniProt P33981)
T3 sequence (P33981 whole entry): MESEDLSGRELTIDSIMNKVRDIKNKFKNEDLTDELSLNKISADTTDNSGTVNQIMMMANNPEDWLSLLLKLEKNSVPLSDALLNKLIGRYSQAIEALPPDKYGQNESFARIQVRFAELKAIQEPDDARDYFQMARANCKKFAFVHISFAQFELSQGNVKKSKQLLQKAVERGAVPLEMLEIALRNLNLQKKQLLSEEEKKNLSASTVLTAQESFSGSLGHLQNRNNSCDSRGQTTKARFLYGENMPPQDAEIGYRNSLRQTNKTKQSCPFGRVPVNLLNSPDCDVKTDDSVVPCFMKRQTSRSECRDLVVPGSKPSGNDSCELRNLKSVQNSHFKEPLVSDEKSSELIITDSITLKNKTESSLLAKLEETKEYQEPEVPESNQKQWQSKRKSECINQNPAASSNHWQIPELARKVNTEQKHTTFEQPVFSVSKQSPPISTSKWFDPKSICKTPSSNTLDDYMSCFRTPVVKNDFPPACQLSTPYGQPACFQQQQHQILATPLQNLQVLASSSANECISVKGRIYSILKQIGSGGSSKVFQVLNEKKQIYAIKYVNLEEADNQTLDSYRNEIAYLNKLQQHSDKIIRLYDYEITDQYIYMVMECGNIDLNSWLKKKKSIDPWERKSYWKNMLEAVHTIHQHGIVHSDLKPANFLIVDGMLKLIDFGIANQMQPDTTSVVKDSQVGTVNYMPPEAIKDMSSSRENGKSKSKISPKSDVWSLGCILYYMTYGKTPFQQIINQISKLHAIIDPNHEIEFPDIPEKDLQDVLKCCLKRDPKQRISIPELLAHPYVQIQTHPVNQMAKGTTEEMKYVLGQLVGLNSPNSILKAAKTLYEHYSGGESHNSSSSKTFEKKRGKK

[22] = Drug uptake in po dosed mouse plasma; format: ADME, organism-based; settings: in vivo

Row | SMILES | solubility [2] [µg/mL] | clearance [3] [mL/min/kg] | GI50 (MDA-MB-468) [µM] | inhibition in vivo at 6.5 mg/kg (HCT-116 [4]) [%] | MTD [5] [mg/kg] | AUC [6] [ng·h/mL] | bioavailability [7] [%] | solubility [8] [µg/mL] | bioavailability [10] [%] | AUC(0-inf) [12] [ng·h/mL] | inhibition in vivo at 6.5 mg/kg (HT-29) [%] | IC50 (Cytochrome P450 3A4 [13]) [µM] | clearance [14] [mL/min/kg] | pKa [15] | GI50 (HCT-116 [16]) [µM] | AUC(0-inf) [17] [ng·h/mL] | Cmax [18] [ng/mL] | GI50 (OVCAR-3) [µM] | further results
1 | Cc1cc(-c2cnn3c(NC[C@H]4C[C@@](C)(O)C4)cc(Oc4cccnc4)nc23)ccc1C(=O)NC1CC1 [LUVIXASERTIB] | 560 (≈ 1120 µM) | 14 | 0.002 | 68 | 6.5 | 7500 | 114 | 3.3 (≈ 6.62 µM) | 53 | 25000 | 60 | 0.51 | 4.9 | 3.7 | 0.002 | 3400 | 2500 | 0.004 | IC50 (Cytochrome P450 3A4 [1]): 14 µM; IC50 (Cytochrome P450 1A2): Not Active; TGI (HCT-116 [9]): Dose-dependent effect; IC50 (Cytochrome P450 2C9): 13 µM; Activity [11]: < 10%; IC50 (Cytochrome P450 2C19): 8 µM; inhibition in vivo at 5.5 mg/kg (HCT-116 [19]): 68%; Activity [20]: Non-Toxic; IC50 (Cytochrome P450 2D6): Not Active
2 | Cc1cc(-c2cnn3c(NCCN4CCOCC4)cc(Oc4cccc(F)c4)nc23)ccc1C(=O)NC1CC1 | 11000 (≈ 20700 µM) | 34 | 0.02 | 72 | 6.5 | 3600 | 77 | 1.5 (≈ 2.83 µM) | 77 | 2200 | 41 | 0.78 | 29 | 6.7 | 0.001 | 1900 | 1200 | 0.26 | IC50 [21]: 0.0022 µM; Drug uptake [22]: Dose-dependent effect
